# Reference: ChEMBL document CHEMBL5528052, “Single Deletion Unmasks Hidden Anti-Gram-Negative Bacterial Activity of an Insect Defensin-Derived Peptide” (J Med Chem, 2024)
# Calls of active or inactive are those of the source. No cut-off for these calls is given here. Bridge positions count the residues as written; N and C are the ends. Peptide text beside a SMILES is read from it.
# Assays:
# [1] = tested on: Escherichia coli; test: Antimicrobial activity against Escherichia coli J16c at 1 nmol relative to control; assay type: functional, organism-based
# [2] = tested on: Priestia megaterium; test: Antimicrobial activity against Bacillus megaterium CGMCC 1.0459 at 1 nmol; assay type: functional, organism-based
# [3] = tested on: Staphylococcus; test: Antimicrobial activity against methicillin-resistant coagulase negative Staphylococcus P1369 at 1 nmol relative to control; assay type: functional, organism-based
# [4] = tested on: Streptococcus mutans; test: Antimicrobial activity against Streptococcus mutans ATCC 1.2499 at 1 nmol relative to control; assay type: functional, organism-based
# [5] = tested on: Pseudomonas aeruginosa; test: Antimicrobial activity against Pseudomonas aeruginosa at 1 nmol relative to control; assay type: functional, organism-based
# [6] = tested on: Pseudomonas aeruginosa; test: Antimicrobial activity against Pseudomonas aeruginosa 11092304 at 1 nmol relative to control; assay type: functional, organism-based
# [7] = tested on: Staphylococcus epidermidis; test: Antimicrobial activity against penicillin-resistant Staphylococcus epidermidis P1389 at 1 nmol relative to control; assay type: functional, organism-based
# [8] = tested on: Staphylococcus aureus; test: Antimicrobial activity against methicillin-resistant Staphylococcus aureus P1386 at 1 nmol relative to control; assay type: functional, organism-based
# [9] = tested on: Alcaligenes faecalis; test: Antimicrobial activity against Alcaligenes faecalis CGMCC 1.1837 at 1 nmol relative to control; assay type: functional, organism-based
# [10] = tested on: Salmonella enterica; test: Antimicrobial activity against Salmonella enterica ATCC 14028 at 1 nmol relative to control; assay type: functional, organism-based
# [11] = tested on: Aspergillus niger; test: Antifungal activity against Aspergillus niger at 1 nmol relative to control; assay type: functional, organism-based
# [12] = tested on: Beauveria bassiana; test: Antifungal activity against Beauveria bassiana 252 at 1 nmol relative to control; assay type: functional, organism-based
# [13] = tested on: Staphylococcus warneri; test: Antimicrobial activity against Staphylococcus warneri ATCC 1.2824 at 1 nmol relative to control; assay type: functional, organism-based
# [14] = tested on: Geotrichum candidum; test: Antifungal activity against Geotrichum candidum CCTCC AY 93038 at 1 nmol relative to control; assay type: functional, organism-based
# [15] = tested on: Pseudomonas aeruginosa; test: Antimicrobial activity against Pseudomonas aeruginosa DH at 1 nmol relative to control; assay type: functional, organism-based
# [16] = tested on: Micrococcus luteus; test: Antimicrobial activity against Micrococcus luteus CGMCC 1.0290 at 1 nmol relative to control; assay type: functional, organism-based
# [17] = tested on: Pseudomonas aeruginosa; test: Antimicrobial activity against Pseudomonas aeruginosa 374 at 1 nmol relative to control; assay type: functional, organism-based
# [18] = tested on: Aspergillus flavus; test: Antifungal activity against Aspergillus flavus at 1 nmol relative to control; assay type: functional, organism-based
# [19] = tested on: Ralstonia solanacearum; test: Antimicrobial activity against Ralstonia solanacearum at 1 nmol relative to control; assay type: functional, organism-based
# [20] = tested on: Escherichia coli; test: Antimicrobial activity against Escherichia coli J23a at 1 nmol relative to control; assay type: functional, organism-based
# [21] = tested on: Staphylococcus aureus; test: Antimicrobial activity against penicillin-resistant Staphylococcus aureus P1383 at 1 nmol relative to control; assay type: functional, organism-based
# [22] = tested on: Pseudomonas aeruginosa; test: Antimicrobial activity against Pseudomonas aeruginosa FRD1 at 1 nmol relative to control; assay type: functional, organism-based
# [23] = tested on: Komagataella pastoris; test: Antifungal activity against Pichia pastoris X33 at 1 nmol relative to control; assay type: functional, organism-based
# [24] = tested on: Escherichia coli; test: Antimicrobial activity against Escherichia coli DH5alpha at 1 nmol relative to control; assay type: functional, organism-based
# [25] = tested on: Staphylococcus aureus; test: Antimicrobial activity against Staphylococcus aureus J685 at 1 nmol relative to control; assay type: functional, organism-based
# [26] = tested on: Pseudomonas aeruginosa; test: Antimicrobial activity against Pseudomonas aeruginosa 11082616 at 1 nmol relative to control; assay type: functional, organism-based
# [27] = tested on: Aspergillus fumigatus; test: Antifungal activity against Aspergillus fumigatus YJ-407 at 1 nmol relative to control; assay type: functional, organism-based
# [28] = tested on: Streptococcus sanguinis; test: Antimicrobial activity against Streptococcus sanguinis ATCC 1.2497 at 1 nmol relative to control; assay type: functional, organism-based
# [29] = tested on: Pseudomonas aeruginosa; test: Antimicrobial activity against Pseudomonas aeruginosa 11092618 at 1 nmol relative to control; assay type: functional, organism-based
# [30] = tested on: Bacillus subtilis; test: Antimicrobial activity against Bacillus subtilis CGMCC 1.2428 at 1 nmol relative to control; assay type: functional, organism-based
# [31] = tested on: Escherichia coli; test: Antimicrobial activity against Escherichia coli J45b at 1 nmol relative to control; assay type: functional, organism-based
# [32] = tested on: Pseudomonas aeruginosa; test: Antimicrobial activity against Pseudomonas aeruginosa 11082603 at 1 nmol relative to control; assay type: functional, organism-based
# [33] = tested on: Escherichia coli; test: Antimicrobial activity against Escherichia coli G2b at 1 nmol relative to control; assay type: functional, organism-based
# [34] = tested on: Stenotrophomonas maltophilia; test: Antimicrobial activity against Stenotrophomonas maltophilia CGMCC 1.1788 at 1 nmol relative to control; assay type: functional, organism-based
# [35] = tested on: Aspergillus nidulans; test: Antifungal activity against Aspergillus nidulans A28 at 1 nmol relative to control; assay type: functional, organism-based
# [36] = tested on: Staphylococcus aureus; test: Antimicrobial activity against methicillin-resistant Staphylococcus aureus P1374 at 1 nmol relative to control; assay type: functional, organism-based
# [37] = tested on: Pseudomonas aeruginosa; test: Antimicrobial activity against Pseudomonas aeruginosa O1 at 1 nmol relative to control; assay type: functional, organism-based
# [38] = tested on: Metarhizium robertsii; test: Antifungal activity against Metarhizium robertsii at 1 nmol relative to control; assay type: functional, organism-based
# [39] = tested on: Escherichia coli; test: Antimicrobial activity against Escherichia coli J14b at 1 nmol relative to control; assay type: functional, organism-based
# [40] = tested on: Lysinibacillus fusiformis; test: Antimicrobial activity against Lysinibacillus fusiformis at 1 nmol relative to control; assay type: functional, organism-based
# [41] = tested on: Pseudomonas aeruginosa; test: Antimicrobial activity against Pseudomonas aeruginosa QT1 at 1 nmol relative to control; assay type: functional, organism-based
# [42] = tested on: Streptococcus salivarius; test: Antimicrobial activity against Streptococcus salivarius ATCC 1.2498 at 1 nmol relative to control; assay type: functional, organism-based
# [43] = tested on: Curtobacterium luteum; test: Antimicrobial activity against Curtobacterium luteum at 1 nmol relative to control; assay type: functional, organism-based
# [44] = tested on: Micrococcus luteus; test: Antimicrobial activity against Micrococcus luteus CGMCC 1.0290 assessed as lethal concentration; assay type: functional
# [45] = tested on: Streptococcus sanguinis; test: Antimicrobial activity against Streptococcus sanguinis ATCC 1.2497 assessed as lethal concentration; assay type: functional
# [46] = tested on: Curtobacterium luteum; test: Antimicrobial activity against Curtobacterium luteum assessed as lethal concentration; assay type: functional
# [47] = tested on: Staphylococcus; test: Antimicrobial activity against methicillin-resistant coagulase negative Staphylococcus P1369 assessed as lethal concentration; assay type: functional
# [48] = tested on: Staphylococcus aureus; test: Antimicrobial activity against methicillin-resistant Staphylococcus aureus P1374 assessed as lethal concentration; assay type: functional
# [49] = tested on: Staphylococcus aureus; test: Antimicrobial activity against Staphylococcus aureus J685 assessed as lethal concentration; assay type: functional
# [50] = tested on: Bacillus subtilis; test: Antimicrobial activity against Bacillus subtilis CGMCC 1.2428 assessed as lethal concentration; assay type: functional
# [51] = Retention time of the compound by RP-HPLC analysis; assay type: physicochemical
# [52] = tested on: Priestia megaterium; test: Antimicrobial activity against Bacillus megaterium CGMCC 1.0459 assessed as lethal concentration; assay type: functional
# [53] = tested on: Staphylococcus epidermidis; test: Antimicrobial activity against penicillin-resistant Staphylococcus epidermidis P1389 assessed as lethal concentration; assay type: functional
# [54] = tested on: Lysinibacillus fusiformis; test: Antimicrobial activity against Lysinibacillus fusiformis assessed as lethal concentration; assay type: functional
# [55] = tested on: Salmonella enterica; test: Antimicrobial activity against Salmonella enterica ATCC 14028 at 0.25 to 1 nmol; assay type: functional, organism-based; conditions: dose 0.25-1 nmol
# [56] = tested on: Erythrocyte; test: Hemolytic activity in mouse erythrocytes assessed as hemolysis at 100 uM; assay type: toxicity, cell-based
compound,measurement,setting,value
H-ATSYSNNKISVSRR-NH2,Activity,[1],inactive
same,Activity,[2],Active
same,Activity,[3],inactive
same,Activity,[4],inactive
same,Activity,[5],inactive
same,Activity,[6],inactive
same,Activity,[7],inactive
same,Activity,[8],inactive
same,Activity,[9],inactive
same,Activity,[10],inactive
same,Activity,[11],inactive
same,Activity,[12],inactive
same,Activity,[13],inactive
same,Activity,[14],inactive
same,Activity,[15],inactive
same,Activity,[16],inactive
same,Activity,[17],inactive
same,Activity,[18],inactive
same,Activity,[19],inactive
same,Activity,[20],inactive
same,Activity,[21],inactive
same,Activity,[22],inactive
same,Activity,[23],inactive
same,Activity,[24],inactive
same,Activity,[25],inactive
same,Activity,[26],inactive
same,Activity,[27],inactive
same,Activity,[28],inactive
same,Activity,[29],inactive
same,Activity,[30],inactive
same,Activity,[31],inactive
same,Activity,[32],inactive
same,Activity,[33],inactive
same,Activity,[34],inactive
same,Activity,[35],inactive
same,Activity,[36],inactive
same,Activity,[37],inactive
same,Activity,[38],inactive
same,Activity,[39],inactive
same,Activity,[40],inactive
same,Activity,[41],inactive
same,Activity,[42],inactive
same,Activity,[43],inactive
CC[C@H](C)[C@H](NC(=O)[C@H](C)NC(=O)[C@H](CCCCN)NC(=O)[C@H](CC(N)=O)NC(=O)[C@H](CC(N)=O)NC(=O)[C@H](CS)NC(=O)[C@H](Cc1ccc(O)cc1)NC(=O)[C@H](CS)NC(=O)[C@@H](NC(=O)[C@H](C)N)[C@@H](C)O)C(=O)N[C@@H](CS)C(=O)N[C@H](C(=O)N[C@H](CS)C(=O)N[C@H](CCCNC(=N)N)C(=O)N[C@H](CCCNC(=N)N)C(N)=O)C(C)C,Activity,[1],inactive
same,LD,[44],1.96 µM
same,LD,[45],10.4 µM
same,Activity,[5],inactive
same,Activity,[6],inactive
same,Activity,[8],inactive
same,Activity,[9],inactive
same,Activity,[10],inactive
same,Activity,[11],inactive
same,Activity,[12],inactive
same,LD,[46],0.13 µM
same,Activity,[13],inactive
same,Activity,[14],inactive
same,Activity,[15],inactive
same,Activity,[17],inactive
same,Activity,[18],inactive
same,Activity,[19],inactive
same,Activity,[20],inactive
same,LD,[47],4.31 µM
same,Activity,[22],inactive
same,Activity,[23],inactive
same,Activity,[24],inactive
same,Activity,[25],inactive
same,Activity,[26],inactive
same,Activity,[27],inactive
same,LD,[48],14.29 µM
same,Activity,[29],inactive
same,Activity,[31],inactive
same,LD,[49],8.34 µM
same,Activity,[32],inactive
same,Activity,[33],inactive
same,LD,[50],3.54 µM
same,Activity,[34],inactive
same,Activity,[35],inactive
same,Retention_time,[51],15.2 min
same,LD,[52],2.44 µM
same,Activity,[37],inactive
same,Activity,[38],inactive
same,Activity,[39],inactive
same,LD,[53],4.1 µM
same,Activity,[41],inactive
same,LD,[54],5.35 µM
same,Activity,[42],inactive
"CC[C@H](C)[C@@H]1NC(=O)[C@H](CCCCN)NC(=O)[C@H](CC(N)=O)NC(=O)[C@H](CC(N)=O)NC(=O)[C@@H]2CSSC[C@H](NC1=O)C(=O)N[C@@H](C(C)C)C(=O)N[C@H](C(=O)N[C@@H](CCCNC(=N)N)C(=O)N[C@@H](CCCNC(=N)N)C(=O)O)CSSC[C@H](NC(=O)[C@@H](NC(=O)[C@H](C)N)[C@@H](C)O)C(=O)N[C@@H](Cc1ccc(O)cc1)C(=O)N2 (H-ATCYCNNKICVCRR-OH; disulfide 3-12, 5-10)",Activity,[1],inactive
same,LD,[44],3.52 µM
same,Activity,[4],inactive
same,Activity,[5],inactive
same,Activity,[6],inactive
same,Activity,[7],inactive
same,Activity,[8],inactive
same,Activity,[9],inactive
same,Activity,[10],inactive
same,Activity,[11],inactive
same,Activity,[12],inactive
same,LD,[46],4.3 µM
same,Activity,[13],inactive
same,Activity,[14],inactive
same,Activity,[15],inactive
same,Activity,[17],inactive
same,Activity,[18],inactive
same,Activity,[19],inactive
same,Activity,[20],inactive
same,LD,[47],5.3 µM
same,Activity,[21],inactive
same,Activity,[22],inactive
same,Activity,[23],inactive
same,Activity,[24],inactive
same,Activity,[25],inactive
same,Activity,[26],inactive
same,Activity,[27],inactive
same,Activity,[28],inactive
same,Activity,[29],inactive
same,Activity,[30],inactive
same,Activity,[31],inactive
same,Activity,[32],inactive
same,Activity,[33],inactive
same,Activity,[34],inactive
same,Activity,[35],inactive
same,Activity,[55],inactive
same,Retention_time,[51],16 min
same,Activity,[36],inactive
same,LD,[52],2.58 µM
same,Activity,[37],inactive
same,Activity,[38],inactive
same,Activity,[39],inactive
same,Activity,[40],inactive
same,Activity,[41],inactive
same,Activity,[42],inactive
H-FFGHLFKLATKIIPSLFQ-OH,Activity,[56],Non-Toxic
